These results are taken from US20230144211A1, “ANTIFOLATE LINKER-DRUGS AND ANTIBODY-DRUG CONJUGATES” (Byondis B.V., priority 2020, published 2023).

Test [1] relates to SK-BR-3 cells. As to the kind of experiment: In vitro cell viability assay (CellTiter-Glo, 6 days). It counts as cell-based, human. As to conditions: Homo sapiens. The protocol:
(§1) FaDu, BxPC-3, HeLa, MV4-11, and RAJI cell lines were obtained from Deutsche Sammlung von Mikroorganismen und Zellkulturen (Leipzig, Germany). Jurkat NucLight Red cells were obtained from Essen BioScience Inc. (Ann Arbor, Mich., USA). SK-BR-3 and SK-OV-3 cells were cultured in McCoys 5A medium (Lonza; Walkersville, Md., USA) supplemented with 10% v/w Fetal Bovine Serum (FBS), Heat-inactivated (HI) (Gibco-Life Technologies; Carlsbad, Calif.) and 80 U/mL Pen/Strep (Gibco-Life Technologies), at 37° C. in a humidified incubator under 5% CO2 atmosphere. SW-620 cells were similarly maintained in RPMI 1640 medium (Lonza), containing 10% v/w FBS HI and 80 U/mL Pen/Strep. A-549 cells were similarly maintained in F-12K Nutrient Mixture (1×) (Gibco-Life Technologies) media supplemented with 80 U/mL Pen/Strep and 5% v/w FBS, which was Qualified (Q) (Gibco-Life Technologies). BT-474 and AU-565 cells were similarly maintained in RPMI 1640 medium (Lonza), containing 10% v/w FBS, which was Qualified (Q) (Gibco-Life Technologies), and 80 U/mL Pen/Strep. […] Jurkat NucLight Red cells were similarly maintained in RPMI 1640 medium (Lonza), containing 10% v/w FBS HI, 80 U/mL Pen/Strep and 0.5 μg/mL Puromycin (Gibco-Life Technologies). FaDu cells were cultured in EMEM medium (Lonza) supplemented with 10% v/w FBS HI (Gibco-Life Technologies), 1× GlutaMAX (Gibco-Life Technologies), and 80 U/mL Pen/Strep (Gibco-Life Technologies), at 37° C. in a humidified incubator under 5% CO2 atmosphere.
(§2) After an overnight incubation, 10 serial log 10 dilutions of the free drugs were made in DMSO (Sigma-Aldrich). These free drug dose-response curves were 10-times further diluted in complete growth medium. For the ADCs according to the invention 10 serial log 10 dilutions were made in complete growth medium. 10 μL of a composition comprising a free drug or an ADC according to the invention was added to the assay plate (final DMSO content for free drugs was 1%). […] […] Percentage cell survival was calculated by dividing the measured luminescence for each free drug or ADC according to the concentration with the average mean of untreated cells (1% or 0.1% DMSO control (for free drugs) or 100% complete growth medium (for ADCs)) multiplied by 100.
(§3) Curves were fitted by non-linear regression using the sigmoidal dose-response equation with variable slope (four parameters) using curve-fitting software (GraphPad Prism, version 9.4.0 for Windows, GraphPad, San Diego, Calif. or Electronic Laboratory Notebook (ELN) add-in BioAssay, version 19.1.0.0218, Perkin Elmer, Waltham, Mass.). Relative IC50 values were calculated as the concentration that gives a response halfway between bottom and top of the curve, when using a 4-parameter logistic fit. Data were reported as mean IC50 value of at least one experiment performed in duplicate.

For test [2], the system named is Jurkat NucLight Red cells. Described as above. It counts as cell-based, human. The note with it: Homo sapiens, Jurkat, free antifolate drugs. The protocol: as §1
(§4) After an overnight incubation, 10 serial log 10 dilutions of the free drugs were made in DMSO (Sigma-Aldrich). These free drug dose-response curves were 10-times further diluted in complete growth medium. For the ADCs according to the invention 10 serial log 10 dilutions were made in complete growth medium. 10 μL of a composition comprising a free drug or an ADC according to the invention was added to the assay plate (final DMSO content for free drugs was 1%). […] Cell viability was assessed after 6 days using a luminescent assay kit (CellTiter-Glo™ (CTG), Promega Corporation) according to the manufacturer's instructions. Percentage cell survival was calculated by dividing the measured luminescence for each free drug or ADC according to the concentration with the average mean of untreated cells (1% or 0.1% DMSO control (for free drugs) or 100% complete growth medium (for ADCs)) multiplied by 100.
as §3

The subject of test [3] is BxPC-3 cells. The test is described as above. The format is cell-based. The note with it: Homo sapiens, free antifolate drugs, Table 1d. The protocol:
as §1, §2, §3

Test [4] relates to FaDu cells. The description is as above. The format is cell-based. As to conditions: Homo sapiens, free antifolate drugs, Table 1d. As for the experimental part:
as §1, §2, §3

In test [5] the test system is SK-OV-3 cells. The description is as above. As to conditions: Homo sapiens, free antifolate drugs, Table 1a. It counts as cell-based. The protocol: as §1, §4, §3
For test [6], the system named is BT-474 cells. The description is as above. It counts as cell-based. The note with it: Homo sapiens, free antifolate drugs, Table 1a, # no full dose-response curve. The protocol: as §1, §2, §3
The test system of test [7] is A-549 cells. The description is as above. It counts as cell-based. The note with it: Homo sapiens, A549; free antifolate drugs, Table 1a; $ steep hillslope. As for the experimental part: (§5) Human tumor cell lines SK-BR-3, SW-620, A-549, BT-474, Jurkat Clone E6-1, AU-565, and SK-OV-3 were obtained from American Type Culture Collection (Rockville, Md., USA). FaDu, BxPC-3, HeLa, MV4-11, and RAJI cell lines were obtained from Deutsche Sammlung von Mikroorganismen und Zellkulturen (Leipzig, Germany). Jurkat NucLight Red cells were obtained from Essen BioScience Inc. (Ann Arbor, Mich., USA). SK-BR-3 and SK-OV-3 cells were cultured in McCoys 5A medium (Lonza; Walkersville, Md., USA) supplemented with 10% v/w Fetal Bovine Serum (FBS), Heat-inactivated (HI) (Gibco-Life Technologies; Carlsbad, Calif.) and 80 U/mL Pen/Strep (Gibco-Life Technologies), at 37° C. in a humidified incubator under 5% CO2 atmosphere. SW-620 cells were similarly maintained in RPMI 1640 medium (Lonza), containing 10% v/w FBS HI and 80 U/mL Pen/Strep. A-549 cells were similarly maintained in F-12K Nutrient Mixture (1×) (Gibco-Life Technologies) media supplemented with 80 U/mL Pen/Strep and 5% v/w FBS, which was Qualified (Q) (Gibco-Life Technologies). BT-474 and AU-565 cells were similarly maintained in RPMI 1640 medium (Lonza), containing 10% v/w FBS, which was Qualified (Q) (Gibco-Life Technologies), and 80 U/mL Pen/Strep. Jurkat Clone E6-1, BxPC-3, HeLa, MV4-11, and RAJI cells were similarly maintained in RPMI 1640 medium (Lonza), containing 10% v/w FBS HI and 80 U/mL Pen/Strep. Jurkat NucLight Red cells were similarly maintained in RPMI 1640 medium (Lonza), containing 10% v/w FBS HI, 80 U/mL Pen/Strep and 0.5 μg/mL Puromycin (Gibco-Life Technologies). FaDu cells were cultured in EMEM medium (Lonza) supplemented with 10% v/w FBS HI (Gibco-Life Technologies), 1× GlutaMAX (Gibco-Life Technologies), and 80 U/mL Pen/Strep (Gibco-Life Technologies), at 37° C. in a humidified incubator under 5% CO2 atmosphere.
as §4, with “Cells in complete growth medium were plated in 96-well plates (90 μL/well) and incubated at 37° C., 5% CO2 at the following cell densities: 6500 SK-BR-3, 4000 SW-620, 2500 A-549, 10000 BT-474, 3000 Jurkat Clone E6-1, 5000 AU-565, 1250 FaDu, 1250 BxPC-3, 1000 HeLa, 7500 MV4-11, 1000 RAJI, 3000 Jurkat NucLight Red, and 4000 SK-OV-3 cells per well. After” for “After”
as §3

Test [8] deals with AU-565 cells. The description is as above. It counts as cell-based, human. As to conditions: Homo sapiens, AU565, free antifolate drugs, Table 1b. The protocol: as §1, §2, §3
The test system of test [9] is Human tumor cell lines. As to the kind of experiment: In vitro cell viability assays, free antifolate drugs, overall comparison. It counts as cell-based. As to conditions: compared with talotrexin or parent compound. The protocol: as §5
as §4, with “Cells in complete growth medium were plated in 96-well plates (90 μL/well) and incubated at 37° C., 5% CO2 at the following cell densities: 6500 SK-BR-3, 4000 SW-620, 2500 A-549, 10000 BT-474, 3000 Jurkat Clone E6-1, 5000 AU-565, 1250 FaDu, 1250 BxPC-3, 1000 HeLa, 7500 MV4-11, 1000 RAJI, 3000 Jurkat NucLight Red, and 4000 SK-OV-3 cells per well. After” for “After”
as §3

Test [10] deals with SW-620 cells. As to the kind of experiment: In vitro cell viability assay (CellTiter-Glo, 6 days). As to conditions: Homo sapiens, free antifolate drugs, Table 1a. The format is cell-based. The protocol:
as §1, §4, §3

[11] abbreviates: SK-BR-3, free antifolate drugs, Table 1a.

On to `Nc1ccc(C(=O)NCCC[C@H](NC(=O)c2ccc(CCc3ccc4nc(N)nc(N)c4c3F)cc2)C(=O)O)c(-c2nnn[nH]2)c1` [XG2, (S)-5-(4-Amino-2-(1H-tetrazol-5-yl)benzamido)-2-(4-(2-(2,4-diamino-5-fluoroquinazolin-6-yl)ethyl)benzamido)pentanoic acid], for which the IC50 amounted to 0.9 nM in test [1] (SK-BR-3, 24 h, free antifolate drugs, Table 1d); 0.87 nM in test [2] (24 h, Table 1d); 0.92 nM in [3]; 0.31 nM in [4].
With `N#Cc1cc(N)ccc1-c1cn(CCC[C@H](NC(=O)c2ccc(NCc3cnc4nc(N)nc(N)c4n3)cc2)C(=O)O)nn1` [XX47, (S)-5-(4-(4-Amino-2-cyanophenyl)-1H-1,2,3-triazol-1-yl)-2-(4-(((2,4-diaminopteridin-6-yl)methyl)amino)benzamido)pentanoic acid], the IC50 is more than 100 nM in test [5], approximately 14 nM in test [1] (setting [11]) and approximately 100 nM in [6].
Regarding `Nc1ccc(C(=O)NCCC[C@H](NC(=O)c2ccc(NCc3cnc4nc(N)nc(N)c4n3)cc2)C(=O)O)c(S(=O)(=O)O)c1` [XX37, (S)-5-(4-Amino-2-sulfobenzamido)-2-(4-(((2,4-diaminopteridin-6-yl)methyl)amino)benzamido) pentanoic acid], the IC50 in test [1] (setting [11]) was determined as 2.4 nM; in test [7] it was 4 nM; in test [6], 7.5 nM.
Turning to `Nc1ccc(C(=O)NCCC[C@H](NC(=O)c2ccc(NCc3cnc4nc(N)nc(N)c4n3)cc2)C(=O)O)c(-c2nn[nH]n2)c1` [XX35, (S)-5-(4-Amino-2-(2H-tetrazol-5-yl)benzamido)-2-(4-(((2,4-diaminopteridin-6-yl)methyl)amino)benzamido)pentanoic acid], the IC50 in [1] (setting [11]) was 1.3 nM; in [1] (SK-BR-3, free antifolate drugs, Table 1b, # no full dose-response curve) it was 1.03 nM; in test [8], 0.62 nM; in [2] (Table 1b), 1.4 nM; in test [7] it was approximately 2.5 nM; in test [6], 4.3 nM.
Regarding `[N-]=[N+]=Nc1ccc(C(=O)NCCC[C@H](NC(=O)c2ccc(CCc3cnc4nc(N)nc(N)c4n3)cc2)C(=O)O)cc1` [XX5, (S)-5-(4-Azidobenzamido)-2-(4-(2-(2,4-diaminopteridin-6-yl)ethyl)benzamido) pentanoic acid], in test [9], the “antifolate activity, comparison in words” value is recorded as “less active than talotrexin”. In addition, the IC50 in [10] is 7.2 nM; in test [1] (setting [11]), 16 nM; in [7], 76 nM.
The like results for `CN(Cc1cnc2nc(N)nc(N)c2n1)c1ccc(C(=O)N[C@@H](CCCNC(=O)c2ccc(N)cc2)C(=O)O)cc1` [XX12, (S)-5-(4-aminobenzamido)-2-(4-(((2,4-diaminopteridin-6-yl)methyl)(methyl)amino)benzamido) pentanoic acid] were, in that order, “less active than talotrexin”, 7.5 nM, 17 nM and 42 nM.
The corresponding values for `Nc1ccc(C(=O)NCCC[C@H](NC(=O)c2ccc(CCc3cnc4nc(N)nc(N)c4n3)cc2)C(=O)O)cc1` [XX7, (S)-5-(4-Aminobenzamido)-2-(4-(2-(2,4-diaminopteridin-6-yl)ethyl)benzamido) pentanoic acid] are “less active than talotrexin”, 2.8 nM, 6.5 nM and 29 nM.
In the case of `Nc1ccc(C(=O)NCCC[C@H](NC(=O)c2ccc(NCc3cnc4nc(N)nc(N)c4n3)cc2)C(=O)O)cc1` [XT35, (S)-5-(4-Aminobenzamido)-2-(4-(((2,4-diaminopteridin-6-yl)methyl)amino)benzamido) pentanoic acid], the “antifolate activity, comparison in words” value in test [9] is “less active than talotrexin”. Moreover, the half-inhibitory concentration (IC50) in [10] is 2.5 nM; in test [1] (setting [11]) it was 3.1 nM; in test [7] it was 16 nM.
As for `Nc1ccc(C(=O)NCCC[C@H](NC(=O)c2ccc(CCc3ccc4nc(N)nc(N)c4c3)cc2)C(=O)O)cc1` [XJ4, (S)-5-(4-Aminobenzamido)-2-(4-(2-(2,4-diaminoquinazolin-6-yl)ethyl)benzamido)pentanoic acid], the “antifolate activity, comparison in words” value in test [9] is “less active than talotrexin”. Moreover, the IC50 in [1] (setting [11]) is 3.4 nM; in test [7], approximately 10 nM; in [6] it was 8.1 nM.
